Assay results: publication PMC8953583, “The Longitudinal Dividing Bacterium Candidatus Thiosymbion Oneisti Has a Natural Temperature-Sensitive FtsZ Protein with Low GTPase Activity” (International Journal of Molecular Sciences, 2022)
Numbering of substitutions follows the chain as printed.

T1: FtsZ^TO (Candidatus Thiosymbion oneisti, UniProt I3VI34, I207M)
T1 construct: untagged, expressed from pJW17 (pET11b) in E. coli BL21(DE3) pLysS; anion-exchange purified
T1 sequence (I3VI34 1-397 I207M): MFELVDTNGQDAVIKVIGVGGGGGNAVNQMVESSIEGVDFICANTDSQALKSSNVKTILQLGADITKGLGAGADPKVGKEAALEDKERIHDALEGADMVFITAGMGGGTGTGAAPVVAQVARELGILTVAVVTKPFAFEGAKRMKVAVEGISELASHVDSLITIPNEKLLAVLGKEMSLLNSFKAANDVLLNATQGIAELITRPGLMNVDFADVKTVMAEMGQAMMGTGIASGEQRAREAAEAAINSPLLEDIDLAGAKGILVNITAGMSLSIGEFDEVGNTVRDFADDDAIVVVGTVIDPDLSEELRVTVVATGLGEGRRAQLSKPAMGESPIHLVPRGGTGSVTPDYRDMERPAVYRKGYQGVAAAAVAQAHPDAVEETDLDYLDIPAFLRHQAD

T2: FtsZ^EC (Escherichia coli, UniProt P0A9A6)
T2 construct: purified FtsZ; purification not described in main text
T2 sequence (P0A9A6 1-383): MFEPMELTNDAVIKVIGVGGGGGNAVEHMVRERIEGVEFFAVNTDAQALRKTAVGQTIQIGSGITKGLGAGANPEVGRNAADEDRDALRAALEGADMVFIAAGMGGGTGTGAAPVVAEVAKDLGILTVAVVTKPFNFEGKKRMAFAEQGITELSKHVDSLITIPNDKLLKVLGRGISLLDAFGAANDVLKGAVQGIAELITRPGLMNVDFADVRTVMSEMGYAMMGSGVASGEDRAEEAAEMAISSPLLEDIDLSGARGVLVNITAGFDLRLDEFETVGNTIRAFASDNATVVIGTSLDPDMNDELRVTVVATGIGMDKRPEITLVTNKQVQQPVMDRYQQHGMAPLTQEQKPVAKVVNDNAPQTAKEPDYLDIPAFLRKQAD

B1: FtsZ^TO (Candidatus Thiosymbion oneisti) (protein)
chain: T1 sequence (I3VI34 1-397 I207M) with M207I
notes: untagged, expressed from pJW17 (pET11b) in E. coli BL21(DE3) pLysS; anion-exchange purified

Key:
[1] = molecular target: T1, FtsZ^TO; experiment: Malachite green phosphate release GTPase assay; type: biochemical; settings: 1 mM GTP, HEPES buffer pH 7.5 or MES buffer pH 6.5, 50 mM KCl, 5 mM MgCl2, 28 °C; T7 loop mutant
[2] = molecular target: T2, FtsZ^EC; experiment: GTPase assay (phosphate release); type: biochemical; settings: comparison with FtsZ^TO; conditions in supplement
[3] = substrate: Nc1nc2c(ncn2[C@@H]2O[C@H](COP(=O)(O)OP(=O)(O)OP(=O)(O)O)[C@@H](O)[C@H]2O)c(=O)[nH]1; experiment: Malachite green phosphate release GTPase assay, Michaelis-Menten fit; type: biochemical, Candidatus Thiosymbion oneisti; settings: MES buffer pH 6.5, 50 mM KCl, 5 mM MgCl2, 28 °C, 5 μM FtsZ
Source text: Malachite green phosphate release GTPase assay, Michaelis-Menten fit on FtsZ^TO

Molecule | Malachite green phosphate release GTPase assay [1] | GTPase assay (phosphate release) [2] | Km [3] | kcat [3]
Nc1nc2c(ncn2[C@@H]2O[C@H](COP(=O)(O)OP(=O)(O)OP(=O)(O)O)[C@@H](O)[C@H]2O)c(=O)[nH]1 [GTP] | Mutations I207M of the T7 loop and I273E of the H10 helix mutations reduced the GTPase | FtsZ^TO showed a low GTPase activity compared to FtsZ^EC (Figure S4a) | – | –
B1 | – | – | 550 ± 110 µM | 0.00817 ± 0.000833 s⁻¹
